Experimental data reported in ChEMBL document CHEMBL1151793, “Synthesis, biological active molecular design, and molecular docking study of novel deazaflavin-cholestane hybrid compounds” (Bioorg Med Chem, 2008).
Values after ≈ are worked out from the molar mass of the structure shown.

How the values were obtained:
KB = assay: Antitumor activity against human KB cells by MTT assay; type: functional, cell-based
CCRF-HSB-2 = assay: Antitumor activity against human CCRF-HSB2 cells by MTT assay; type: functional, cell-based

Row | Compound | IC50 (KB) [µg/mL] | IC50 (CCRF-HSB-2) [µg/mL]
1 | CCCCCCCC[C@H]1CC[C@H]2[C@@H]3CCC4=Cc5c(cc6c(=O)n(-c7ccccc7)c(=O)nc-6n5-c5ccc(C)c(C)c5)C[C@]4(C)[C@H]3CC[C@]12C | 9.1 (≈ 13.3 µM) | 7.7 (≈ 11.3 µM)
2 | CCCCCCCC[C@H]1CC[C@H]2[C@@H]3CCC4=Cc5c(cc6c(=O)n(C)c(=O)nc-6n5C)C[C@]4(C)[C@H]3CC[C@]12C | 40.9 (≈ 76.9 µM) | 36.8 (≈ 69.2 µM)
3 | CCCCCCCC[C@H]1CC[C@H]2[C@@H]3CCC4=Cc5c(cc6c(=O)n(C)c(=O)nc-6n5-c5ccc(Cl)cc5)C[C@]4(C)[C@H]3CC[C@]12C | 9.2 (≈ 14.6 µM) | 7.6 (≈ 12.1 µM)
4 | CCCCCCCC[C@H]1CC[C@H]2[C@@H]3CCC4=Cc5c(cc6c(=O)[nH]c(=O)nc-6n5C)C[C@]4(C)[C@H]3CC[C@]12C | 8.4 (≈ 16.2 µM) | 8.8 (≈ 17 µM)
5 | CCCCCCCC[C@H]1CC[C@H]2[C@@H]3CCC4=Cc5c(cc6c(=O)n(C)c(=O)nc-6n5CC)C[C@]4(C)[C@H]3CC[C@]12C | > 100 | > 100
6 | CCCCCCCC[C@H]1CC[C@H]2[C@@H]3CCC4=Cc5c(cc6c(=O)n(-c7ccccc7)c(=O)nc-6n5-c5ccc(F)cc5)C[C@]4(C)[C@H]3CC[C@]12C | 8.4 (≈ 12.5 µM) | 5.5 (≈ 8.16 µM)
7 | CCCCCCCC[C@H]1CC[C@H]2[C@@H]3CCC4=Cc5c(cc6c(=O)n(C)c(=O)nc-6n5CCCC)C[C@]4(C)[C@H]3CC[C@]12C | 7.5 (≈ 13.1 µM) | 10 (≈ 17.4 µM)
8 | CCCCCCCC[C@H]1CC[C@H]2[C@@H]3CCC4=Cc5c(cc6c(=O)n(C)c(=O)nc-6n5-c5ccc(C)c(C)c5)C[C@]4(C)[C@H]3CC[C@]12C | 8.3 (≈ 13.3 µM) | 5.6 (≈ 9 µM)
9 | CCCCCCCC[C@H]1CC[C@H]2[C@@H]3CCC4=Cc5c(cc6c(=O)[nH]c(=O)nc-6n5-c5cccc(C)c5)C[C@]4(C)[C@H]3CC[C@]12C | 4.4 (≈ 7.41 µM) | 2.7 (≈ 4.55 µM)
10 | CCCCCCCC[C@H]1CC[C@H]2[C@@H]3CCC4=Cc5c(cc6c(=O)[nH]c(=O)nc-6n5-c5ccc(F)cc5)C[C@]4(C)[C@H]3CC[C@]12C | 2.1 (≈ 3.51 µM) | 2.7 (≈ 4.52 µM)
11 | CCCCCCCC[C@H]1CC[C@H]2[C@@H]3CCC4=Cc5c(cc6c(=O)n(-c7ccccc7)c(=O)nc-6n5-c5cccc(C)c5)C[C@]4(C)[C@H]3CC[C@]12C | 8 (≈ 11.9 µM) | 5.4 (≈ 8.06 µM)
12 | Nc1ccn([C@@H]2O[C@H](CO)[C@@H](O)[C@@H]2O)c(=O)n1 [CYTARABINE] | 0.73 (≈ 3 µM) | 
13 | CCCCCCCC[C@H]1CC[C@H]2[C@@H]3CCC4=Cc5c(cc6c(=O)[nH]c(=O)nc-6n5CCCC)C[C@]4(C)[C@H]3CC[C@]12C | 5.7 (≈ 10.2 µM) | 4.3 (≈ 7.68 µM)
14 | CCCCCCCC[C@H]1CC[C@H]2[C@@H]3CCC4=Cc5c(cc6c(=O)n(C)c(=O)nc-6n5-c5ccc(OC)cc5)C[C@]4(C)[C@H]3CC[C@]12C | 7.4 (≈ 11.9 µM) | 4.5 (≈ 7.21 µM)
15 | CCCCCCCC[C@H]1CC[C@H]2[C@@H]3CCC4=Cc5c(cc6c(=O)n(C)c(=O)nc-6n5-c5ccc(F)cc5)C[C@]4(C)[C@H]3CC[C@]12C | 8.4 (≈ 13.7 µM) | 6.9 (≈ 11.3 µM)
16 | CCCCCCCC[C@H]1CC[C@H]2[C@@H]3CCC4=Cc5c(cc6c(=O)n(-c7ccccc7)c(=O)nc-6n5-c5ccccc5)C[C@]4(C)[C@H]3CC[C@]12C | 1.9 (≈ 2.9 µM) | 2.4 (≈ 3.66 µM)
17 | CCCCCCCC[C@H]1CC[C@H]2[C@@H]3CCC4=Cc5c(cc6c(=O)n(C)c(=O)nc-6n5-c5ccccc5)C[C@]4(C)[C@H]3CC[C@]12C | 7.6 (≈ 12.8 µM) | 6.2 (≈ 10.4 µM)
18 | CCCCCCCC[C@H]1CC[C@H]2[C@@H]3CCC4=Cc5c(cc6c(=O)n(-c7ccccc7)c(=O)nc-6n5-c5ccc(Cl)cc5)C[C@]4(C)[C@H]3CC[C@]12C | 9.3 (≈ 13.5 µM) | 9 (≈ 13 µM)
19 | CCCCCCCC[C@H]1CC[C@H]2[C@@H]3CCC4=Cc5c(cc6c(=O)n(-c7ccccc7)c(=O)nc-6n5C)C[C@]4(C)[C@H]3CC[C@]12C | 7.4 (≈ 12.5 µM) | 5.5 (≈ 9.26 µM)
20 | CCCCCCCC[C@H]1CC[C@H]2[C@@H]3CCC4=Cc5c(cc6c(=O)[nH]c(=O)nc-6n5-c5ccc(C)c(C)c5)C[C@]4(C)[C@H]3CC[C@]12C | 7.8 (≈ 12.8 µM) | 4.7 (≈ 7.73 µM)
21 | CCCCCCCC[C@H]1CC[C@H]2[C@@H]3CCC4=Cc5c(cc6c(=O)n(-c7ccccc7)c(=O)nc-6n5-c5ccc(OC)cc5)C[C@]4(C)[C@H]3CC[C@]12C | 8.7 (≈ 12.7 µM) | 7.5 (≈ 10.9 µM)
22 | CCCCCCCC[C@H]1CC[C@H]2[C@@H]3CCC4=Cc5c(cc6c(=O)[nH]c(=O)nc-6n5-c5ccccc5)C[C@]4(C)[C@H]3CC[C@]12C | 7.9 (≈ 13.6 µM) | 5.4 (≈ 9.31 µM)
23 | CCCCCCCC[C@H]1CC[C@H]2[C@@H]3CCC4=Cc5c(cc6c(=O)n(C)c(=O)nc-6n5-c5cccc(C)c5)C[C@]4(C)[C@H]3CC[C@]12C | 7.4 (≈ 12.2 µM) | 5.4 (≈ 8.88 µM)
24 | CCCCCCCC[C@H]1CC[C@H]2[C@@H]3CCC4=Cc5c(cc6c(=O)n(C)c(=O)nc-6n5-c5ccc(Br)cc5)C[C@]4(C)[C@H]3CC[C@]12C | 14.2 (≈ 21.1 µM) | 14 (≈ 20.8 µM)
25 | CCCCCCCC[C@H]1CC[C@H]2[C@@H]3CCC4=Cc5c(cc6c(=O)[nH]c(=O)nc-6n5-c5ccc(OC)cc5)C[C@]4(C)[C@H]3CC[C@]12C | 1.7 (≈ 2.79 µM) | 2.1 (≈ 3.44 µM)
26 | CCCCCCCC[C@H]1CC[C@H]2[C@@H]3CCC4=Cc5c(cc6c(=O)[nH]c(=O)nc-6n5CC)C[C@]4(C)[C@H]3CC[C@]12C | 40.3 (≈ 75.8 µM) | 37.9 (≈ 71.3 µM)
27 | CCCCCCCC[C@H]1CC[C@H]2[C@@H]3CCC4=Cc5c(cc6c(=O)[nH]c(=O)nc-6n5-c5ccc(Cl)cc5)C[C@]4(C)[C@H]3CC[C@]12C | 1.8 (≈ 2.93 µM) | 2.7 (≈ 4.4 µM)
